# Target: T1, Gastrin/cholecystokinin type B receptor (Mus musculus, UniProt P56481)
# T1 sequence (P56481 whole entry): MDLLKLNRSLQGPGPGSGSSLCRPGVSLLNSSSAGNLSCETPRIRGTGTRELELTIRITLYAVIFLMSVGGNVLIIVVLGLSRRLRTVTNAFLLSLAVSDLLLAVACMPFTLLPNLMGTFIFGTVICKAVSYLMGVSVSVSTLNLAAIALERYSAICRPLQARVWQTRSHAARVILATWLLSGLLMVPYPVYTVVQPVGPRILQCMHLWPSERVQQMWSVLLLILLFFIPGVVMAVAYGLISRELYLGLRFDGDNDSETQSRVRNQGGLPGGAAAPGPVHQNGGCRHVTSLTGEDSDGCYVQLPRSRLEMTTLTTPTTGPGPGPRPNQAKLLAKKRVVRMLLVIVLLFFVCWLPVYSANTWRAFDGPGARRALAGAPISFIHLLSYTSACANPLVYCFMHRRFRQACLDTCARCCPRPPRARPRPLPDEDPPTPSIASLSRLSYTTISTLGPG
# Experiment: Cholecystokinin type B receptor binding assay performed on homogenized cerebral cortex from male mouse
# Assay type: tissue-based
row,SMILES,Ki
1,CC1(C)C2CCC1(C)[C@@H](OC(=O)N[C@@H](Cc1c[nH]c3ccccc13)C(=O)NC[C@H](NC(=O)CCC(=O)O)c1ccccc1)C2 (some centres not stated),398 nM
2,C[C@@H]1CCCC[C@H]1OC(=O)N[C@](C)(Cc1c[nH]c2ccccc12)C(=O)N[C@H](CO)Cc1ccccc1 (stereo in doubt; 11),15.1 nM
3,C[C@@H]1CCCC[C@H]1OC(=O)N[C@](C)(Cc1c[nH]c2ccccc12)C(=O)N[C@H](CNC(=O)CCC(=O)O)Cc1ccccc1,12.3 nM
4,CC1(C)[C@H]2CC[C@@]1(C)[C@@H](OC(=O)N[C@](C)(Cc1c[nH]c3ccccc13)C(=O)NC[C@H](NC(=O)CCC(=O)O)c1ccccc1)C2,2.04 nM
5,C[C@](Cc1c[nH]c2ccccc12)(NC(=O)OC1C2CC3CC(C2)CC1C3)C(=O)NC[C@H](NC(=O)/C=C/C(=O)O)c1ccccc1 (some centres not stated),0.513 nM
6,C[C@@H]1CCCC[C@H]1OC(=O)NC(C)(Cc1c[nH]c2ccccc12)C(=O)NCCc1ccccc1 (some centres not stated),135 nM
7,C[C@@](Cc1c[nH]c2ccccc12)(NC(=O)OC1C2CC3CC(C2)CC1C3)C(=O)N[C@H](CNC(=O)CCC(=O)O)Cc1ccccc1 (some centres not stated),166 nM
8,CC1(C)C2CCC1(C)[C@@H](OC(=O)N[C@H](Cc1c[nH]c3ccccc13)C(=O)NC[C@H](NC(=O)CCC(=O)O)c1ccccc1)C2 (some centres not stated),302 nM
9,C[C@@H]1CCCC[C@H]1OC(=O)N[C@](C)(Cc1c[nH]c2ccccc12)C(=O)N[C@H](CO)Cc1ccccc1 (stereo in doubt; 28),8.91 nM
10,C[C@](Cc1c[nH]c2ccccc12)(NC(=O)OC1C2CC3CC(C2)CC1C3)C(=O)N[C@H](CNC(=O)/C=C/C(=O)O)Cc1ccccc1 (some centres not stated),0.708 nM
11,CC1(C)C2CCC1(C)[C@@H](OC(=O)N[C@](C)(Cc1c[nH]c3ccccc13)C(=O)NC[C@H](NC(=O)/C=C/C(=O)O)c1ccccc1)C2 (some centres not stated),2.19 nM
12,O=C(N[C@H](Cc1c[nH]c2ccccc12)C(=O)N[C@H](CO)Cc1ccccc1)OC1C2CC3CC(C2)CC1C3 (stereo in doubt; 10),2090 nM
13,C[C@](Cc1c[nH]c2ccccc12)(NC(=O)OC1C2CC3CC(C2)CC1C3)C(=O)N[C@H](CNC(=O)CCC(=O)O)Cc1ccccc1 (some centres not stated),3.98 nM
14,C[C@@H]1CCCC[C@H]1OC(=O)N[C@](C)(Cc1c[nH]c2ccccc12)C(=O)NC[C@H](NC(=O)/C=C/C(=O)O)c1ccccc1,3.89 nM
15,O=C(O)C[C@@H](Cc1ccccc1)NC(=O)[C@H](Cc1c[nH]c2ccccc12)NC(=O)OC1C2CC3CC(C2)CC1C3 (some centres not stated),93.3 nM

# Further molecules by falling Ki, results first:
row,Ki,SMILES
1,977 nM,O=C(O)CCC(=O)N[C@@H](CNC(=O)[C@H](Cc1c[nH]c2ccccc12)NC(=O)OC1C2CC3CC(C2)CC1C3)c1ccccc1 (some centres not stated)
2,813 nM,O=C(N[C@H](Cc1c[nH]c2ccccc12)C(=O)N[C@H](CO)Cc1ccccc1)OC1C2CC3CC(C2)CC1C3 (stereo in doubt; 9)
3,355 nM,O=C(O)CCC(=O)NC(CNC(=O)[C@@H](Cc1c[nH]c2ccccc12)NC(=O)OC1C2CC3CC(C2)CC1C3)c1ccccc1 (some centres not stated)
4,191 nM,CC(Cc1c[nH]c2ccccc12)(NC(=O)OC12CC3CC(CC(C3)C1)C2)C(=O)NCCc1ccccc1 (configuration not stated)
5,138 nM,O=C(O)C[C@@H](Cc1ccccc1)NC(=O)[C@@H](Cc1c[nH]c2ccccc12)NC(=O)OC1C2CC3CC(C2)CC1C3 (some centres not stated)
6,126 nM,CC(Cc1c[nH]c2ccccc12)(NC(=O)O[C@H]1CC2CCC1(C)C2(C)C)C(=O)NCCc1ccccc1 (some centres not stated)
7,81.3 nM,CC1(C)C2CCC1(C)[C@@H](OC(=O)N[C@H](Cc1c[nH]c3ccccc13)C(=O)NC[C@H](NC(=O)/C=C/C(=O)O)c1ccccc1)C2 (some centres not stated)
8,20.4 nM,C[C@](Cc1c[nH]c2ccccc12)(NC(=O)OC12CC3CC(CC(C3)C1)C2)C(=O)N[C@H](CO)Cc1ccccc1
9,15.5 nM,CC1(C)C2CCC1(C)C(OC(=O)N[C@](C)(Cc1c[nH]c3ccccc13)C(=O)N[C@H](CO)Cc1ccccc1)C2 (some centres not stated)
10,6.03 nM,C[C@](Cc1c[nH]c2ccccc12)(NC(=O)OC1C2CC3CC(C2)CC1C3)C(=O)N[C@H](CO)Cc1ccccc1 (some centres not stated)
11,3.72 nM,C[C@@H]1CCCC[C@H]1OC(=O)N[C@](C)(Cc1c[nH]c2ccccc12)C(=O)NC[C@H](NC(=O)CCC(=O)O)c1ccccc1
12,1.15 nM,C[C@@H]1CCCC[C@H]1OC(=O)N[C@](C)(Cc1c[nH]c2ccccc12)C(=O)N[C@H](CNC(=O)/C=C/C(=O)O)Cc1ccccc1

# Source: ChEMBL document CHEMBL1125452, “Rationally designed "dipeptoid" analogues of CCK. A Free-Wilson/Fujita-Ban analysis of some alpha-methyltryptophan derivatives as CCK-B antagonists” (J Med Chem, 1992)
